Data on 30 compounds can be found in US7202255B2, “Substituted [1,4] benzodioxino[2,3-e] isoindole derivatives, method for preparing and pharmaceutical compositions containing same” (Les Laboratoires Servier, priority 2002, dated 2007).

Where a name gives a salt, the structure may show the parent alone.

Consider `CN1C(=O)c2c(Oc3ccccc3OS(=O)(=O)C(F)(F)F)cc3[nH]c4ccccc4c3c2C1=O` (as salt: methanesulphonate) [Example 38, 2-[(2-Methyl-1,3-dioxo-1,2,3,6-tetrahydropyrrolo[3,4-c]carbazol-4-yl)oxy]phenyl trifluoromethanesulphonate], for which the melting point came out at 214 °C.

In the case of `Cn1c(=O)c2c3oc4ccccc4oc3c3c(oc4ccccc4n3C(=O)Oc3ccccc3)c2c1=O` [Example 1, Phenyl 7-methyl-6,8-dioxo-7,8-dihydro[1,4]benzodioxino[2,3-a]-pyrrolo[3,4-c]phenoxazine-15(6H)carboxylate], the melting point was 130 °C.

Consider `CN(C)CCn1c(=O)c2c3oc4ccccc4[nH]c3c3oc4ccccc4oc3c2c1=O` [Example 2, 7-[2-(Dimethylamino)ethyl][1,4]benzodioxino[2,3-a]pyrrolo[3,4-c]-phenoxazine-6,8(7H,15H)-dione], for which the melting point amounted to 150 °C.

`Cn1c(=O)c2c3oc4ccccc4oc3c3c(oc4cccnc4n3C(=O)Oc3ccccc3)c2c1=O` [Example 3, Phenyl 7-methyl-6,8-dioxo-7,8-dihydro[1,4]benzodioxino[2,3-e]-pyrido[2′,3′:5,6][1,4]oxazino[3,2-g]isoindole-15(6H)-carboxylate] returned a melting point above 250 °C.

As for `CN(C)CCn1c(=O)c2c3oc4cccnc4[nH]c3c3oc4ccccc4oc3c2c1=O` [Example 4, 7-[2-(Dimethylamino)ethyl][1,4]benzodioxino[2,3-e]pyrido[2′,3′:5,6]-[1,4]oxazino[3,2-g]isoindole-6,8(7H,15H)-dione], the melting point is 150 °C (dec.).

On to `Cn1c(=O)c2c3oc4ccccc4oc3c3c(c4ccccc4n3C(=O)OC(C)(C)C)c2c1=O` [Example 5, tert-Butyl 7-methyl-6,8-dioxo-7,8-dihydro[1,4]benzodioxino[2,3-a]-pyrrolo[3,4-c]carbazole-13(6H)-carboxylate], for which the melting point was 189 °C (dec.).

For the compound `CN(C)CCn1c(=O)c2c3oc4ccccc4oc3c3[nH]c4ccccc4c3c2c1=O` [Example 7, 7-[2-(Dimethylamino)ethyl][1,4]benzodioxino[2,3-a]pyrrolo[3,4-c]-carbazole-6,8(7H,13H)-dione], the melting point was 298 °C (dec.).

As for `Cn1c(=O)c2c3oc4ccccc4oc3c3[nH]c4ccc(F)cc4c3c2c1=O` [Example 11, 10-Fluoro-7-methyl[1,4]benzodioxino[2,3-a]pyrrolo[3,4-c]carbazole-6,8(7H,13H)-dione], the melting point was above 355 °C.

With `CN(C)CCn1c(=O)c2c3oc4ccccc4oc3c3[nH]c4ccc(F)cc4c3c2c1=O` [Example 12, 7-[2-(Dimethylamino)ethyl]-10-fluoro[1,4]benzodioxino[2,3-a]-pyrrolo[3,4-c]carbazole-6,8(7H,13H)-dione], the melting point was 337 °C (dec.).

Compound `Cn1c(=O)c2c3oc4ccccc4oc3c3[nH]c4cc(F)ccc4c3c2c1=O` [Example 13, 11-Fluoro-7-methyl[1,4]benzodioxino[2,3-a]pyrrolo[3,4-c]carbazole-6,8(7H,13H)-dione] returned a melting point above 360 °C.

As for `CN(C)CCn1c(=O)c2c3oc4ccccc4oc3c3[nH]c4cc(F)ccc4c3c2c1=O` [Example 14, 7-[2-(Dimethylamino)ethyl]-11-fluoro[1,4]benzodioxino[2,3-a]-pyrrolo[3,4-c]carbazole-6,8(7H,13H)-dione], the melting point was 301 °C (dec.).

As to `Cn1c(=O)c2c3oc4ccccc4oc3c3[nH]c4ccc(O)cc4c3c2c1=O` [Example 18, 10-Hydroxy-7-methyl[1,4]benzodioxino[2,3-a]pyrrolo[3,4-c]-carbazole-6,8(7H,13H)-dione], the melting point was above 350 °C.

For `CN(C)CCn1c(=O)c2c3oc4ccccc4oc3c3[nH]c4ccc(OCc5ccccc5)cc4c3c2c1=O` [Example 19, 10-(Benzyloxy)-7-[2-(dimethylamino)ethyl][1,4]benzodioxino[2,3-a]-pyrrolo[3,4-c]carbazole-6,8(7H,13H)-dione], the melting point is 254 °C (dec.).

`CN(C)CCn1c(=O)c2c3oc4ccccc4oc3c3[nH]c4ccc(O)cc4c3c2c1=O` [Example 20, 7-[2-(Dimethylamino)ethyl]-10-hydroxy[1,4]benzodioxino[2,3-a]-pyrrolo[3,4-c]carbazole-6,8(7H,13H)-dione] yielded a melting point above 360 °C.

The compound `Cn1c(=O)c2c3oc4ccccc4oc3c3[nH]c4cc(O)ccc4c3c2c1=O` [Example 22, 11-Hydroxy-7-methyl[1,4]benzodioxino[2,3-a]pyrrolo[3,4-c]-carbazole-6,8(7H,13H)-dione] displayed a melting point of 360 °C.

In the case of `CN(C)CCn1c(=O)c2c3oc4ccccc4oc3c3[nH]c4cc(OCc5ccccc5)ccc4c3c2c1=O` [Example 23, 11-(Benzyloxy)-7-[2-(dimethylamino)ethyl][1,4]benzodioxino[2,3-a]-pyrrolo[3,4-c]carbazole-6,8(7H,13H)-dione], the melting point is 262 °C (dec.).

`CN(C)CCn1c(=O)c2c3oc4ccccc4oc3c3[nH]c4cc(O)ccc4c3c2c1=O` [Example 24, 7-[2-(Dimethylamino)ethyl]-11-hydroxy[1,4]benzodioxino[2,3-a]-pyrrolo[3,4-c]carbazole-6,8(7H,13H)-dione]: the melting point is above 360 °C.

The compound `CC(C)(C)OC(=O)n1c2ccc(OCc3ccccc3)cc2c2c3c(=O)[nH]c(=O)c3c3oc4ccccc4oc3c21` [Example 25, tert-Butyl 10-(benzyloxy)-6,8-dioxo-7,8-dihydro[1,4]benzo-dioxino[2,3-a]pyrrolo[3,4-c]carbazole-13(6H)-carboxylate] came in with a melting point above 304 °C.

Consider `CC(C)(C)OC(=O)n1c2cc(OCc3ccccc3)ccc2c2c3c(=O)[nH]c(=O)c3c3oc4ccccc4oc3c21` [Example 27, tert-Butyl 11-(benzyloxy)-6,8-dioxo-7,8-dihydro[1,4]benzo-dioxino[2,3-a]pyrrolo[3,4-c]carbazole-13(6H)-carboxylate], for which the melting point worked out at 199 °C.

In the case of `O=c1[nH]c(=O)c2c1c1oc3ccccc3oc1c1[nH]c3cc(O)ccc3c12` [Example 28, 11-Hydroxy[1,4]benzodioxino[2,3-a]pyrrolo[3,4-c]carbazole-6,8(7H,13H)-dione], the melting point was above 340 °C.

Compound `CC(C)(C)OC(=O)n1c2cc(OCc3ccccc3)ccc2c2c3c(c(Oc4ccccc4O)cc21)C(=O)NC3=O` [Example 30, tert-Butyl 8-(benzyloxy)-4-(2-hydroxyphenoxy)-1,3-dioxo-2,3-dihydropyrrolo[3,4-c]carbazole-6(1H)-carboxylate] gave a melting point of 198 °C.

`CN1C(=O)c2c(Oc3ccccc3O)cc3c(c2C1=O)c1cc(OCc2ccccc2)ccc1n3C(=O)OC(C)(C)C` [Example 31, tert-Butyl 9-(benzyloxy)-4-(2-hydroxyphenoxy)-2-methyl-1,3-dioxo-2,3-dihydropyrrolo[3,4-c]carbazole-6(1H)-carboxylate] came in with a melting point of 170 °C.

For `CN1C(=O)c2c(Oc3ccccc3O)cc3[nH]c4ccc(O)cc4c3c2C1=O` [Example 32, 9-Hydroxy-4-(2-hydroxyphenoxy)-2-methylpyrrolo[3,4-c]-carbazole-1,3(2H,6H)-dione], the melting point was 277 °C (dec.).

As for `CN1C(=O)c2c(Oc3ccccc3O)cc3c(c2C1=O)c1ccccc1n3C(=O)OC(C)(C)C` [Example 33, tert-Butyl 4-(2-hydroxyphenoxy)-2-methyl-1,3-dioxo-2,3-dihydropyrrolo[3,4-c]carbazole-6(1H)-carboxylate], the melting point was 182 °C (dec.).

For `COc1ccccc1Oc1cc2c(c3c1C(=O)N(C)C3=O)c1ccccc1n2C(=O)OC(C)(C)C` [Example 34, tert-Butyl 4-(2-methoxyphenoxy)-2-methyl-1,3-dioxo-2,3-dihydropyrrolo[3,4-c]carbazole-6(1H)-carboxylate], the melting point was above 333 °C.

On to `COc1ccccc1Oc1cc2[nH]c3ccccc3c2c2c1C(=O)N(C)C2=O` [Example 35, 4-(2-Methoxyphenoxy)-2-methylpyrrolo[3,4-c]carbazole-1,3(2H,6H)-dione], for which the melting point was determined as 228 °C.

As for `CN1C(=O)c2c(Oc3ccccc3OS(=O)(=O)C(F)(F)F)cc3c(c2C1=O)c1ccccc1n3C(=O)OC(C)(C)C` [Example 37, tert-Butyl 2-methyl-1,3-dioxo-4-(2-{[(trifluoromethyl)sulphonyl]-oxy}phenoxy)-2,3-dihydropyrrolo[3,4-c]carbazole-6(1H)-carboxylate], the melting point was determined as 182 °C.

For the compound `CN1C(=O)c2c(Oc3ccccc3O)cc3c(c2C1=O)c1ccc(OCc2ccccc2)cc1n3C(=O)OC(C)(C)C` [Example 39, tert-Butyl 8-(benzyloxy)-4-(2-hydroxyphenoxy)-2-methyl-1,3-dioxo-2,3-dihydropyrrolo[3,4-c]carbazole-6(1H)-carboxylate], the melting point is 191 °C.

As for `CN1C(=O)c2c(Oc3ccccc3OS(=O)(=O)C(F)(F)F)cc3c(c2C1=O)c1ccc(OCc2ccccc2)cc1n3C(=O)OC(C)(C)C` [Example 40, tert-Butyl 8-(benzyloxy)-2-methyl-1,3-dioxo-4-(2-{[(trifluoro-methyl)sulphonyl]oxy}phenoxy)-2,3-dihydropyrrolo[3,4-c]-carbazole-6(1H)-carboxylate], the melting point was found to be 186 °C.

On to `CN1C(=O)c2c(Oc3ccccc3O)cc3[nH]c4cc(O)ccc4c3c2C1=O` [Example 41, 8-Hydroxy-4-(2-hydroxyphenoxy)-2-methylpyrrolo[3,4-c]-carbazole-1,3(2H,6H)-dione], for which the melting point worked out at 200 °C.

One may read the melting point as the temperature, or range, at which the solid turns liquid.
